{"source": "patent US4314988A", "about": "“Folic acid derivatives and process for preparation” (Baker Instruments Corp., priority 1979, dated 1982)", "key": {"whole milk folate binder": {"molecular_target": "whole milk folate binder (Bos taurus, UniProt P02702)", "sequence (P02702 20-234)": "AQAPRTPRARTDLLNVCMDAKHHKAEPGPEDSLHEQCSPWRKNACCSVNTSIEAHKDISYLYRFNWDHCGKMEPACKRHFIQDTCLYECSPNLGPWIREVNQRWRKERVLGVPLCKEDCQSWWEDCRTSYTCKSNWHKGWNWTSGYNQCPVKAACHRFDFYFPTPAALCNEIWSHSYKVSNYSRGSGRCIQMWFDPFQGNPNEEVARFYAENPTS", "test": "Competitive protein binding (CPB) radioassay for folates using pteroyltyrosine [125I] as radiolabel", "conditions": "for coincidence of dose response curves generated using pteroyltyrosine [125I] as label: high pH versus lower pH", "procedure": "The use of the Centria® analytical system, Union Carbide Corporation, in this example, is meant to be illustrative and other methods, both automated and manual, obvious to those skilled in the clinical diagnostic art are also within the scope of this invention.\nBriefly, the Centria® system is a tri-modular instrument in which reagents are pipetted on to a multiwell transfer disk and mixed centrifugally with standards or patients' samples. After a suitable incubation period, the components are separated by a centrifugal elution of the bound and free fractions and the bound fractions counted three at a time.\nFolic acid and N^5 -methyltetrahydrofolic acid standards in the range 0-20 nanograms/milliliter were prepared in 0.05 M sodium borate, pH 9.3 containing 0.1% human serum albumin. The whole milk binder was prepared according to the method of Rothenberg et al., (3) and dissolved in sodium borate, pH 9.3 containing 0.1% human serum albumin.\n(50 microliters, 20,000 cpm) plus 85 microliters of water with the limited number of binding sites contained in a 200 microliter solution of whole milk folate binder. The binding reactions may be shown as follows:\nA gamma counter which counts three of the 36 positions at a time for one minute, so constructed that only the eluate bottom portion of the test tubes fits into the counter, was then used to count all samples. Sequential counting of the tubes thus required about 12 minutes. A small computer with printout capability then printed out the data after completion of the cycle."}, "carboxypeptidase A": {"system": "carboxypeptidase A", "test": "Enzymatic hydrolysis of pteroyltyrosine followed spectrophotometrically (uv)", "format": "biochemical", "conditions": "0.025 M Tris-HCl, 2 mM zinc chloride, pH 7.3, two hours at ambient temperature", "procedure": "Two milliliters of a solution of pteroyltrosine (0.75 mmoles/ml) in 0.025 M Tris-HCl containing 2 mM zinc chloride, pH 7.3 were diluted to 10 ml with distilled water. A portion of this solution (2 ml) was placed in a 1 cm cuvette and in another was placed 2 ml of distilled water. To each of the cuvettes was added 50 μl of a solution of 100 μl carboxypeptidase A suspension (Aldrich chemical, lot 060637) diluted with 0.9 ml of 10% lithium chloride.\nThe time course of the reaction was followed spectrophotometrically (uv) over a period of two hours at ambient temperature. An increase and shift in max from 280 to 277 nm and a marked decrease in absorption at 220 nm was observed. Two isosbestic points at 242 and 282 nm were visible."}, "[1]": {"test": "Storage stability of the radioiodinated product, judged by assay performance", "format": "physicochemical", "conditions": "stored in a 50% aqueous propylene glycol solution, ten-week period", "from_the_text": "Radioiodination of biological compounds frequently leads to marked chemical instability and subsequent degradation of the radiolabel. This problem is often accentuated in the radiolabel when the materials to be radioiodinated are known to be sensitive to oxygen, light or extremes in pH, as is the case with folic acid and some derivatives.\nThe reaction mixture was applied to a 1×20 cm Sephadex G25, fine, (Pharmacia Fine Chemicals, Uppsala, Sweden) column hydrated with distilled water and equilibrated with 0.1 M potassium phosphate, pH 7.5. The column was eluted with 0.1 M potassium phosphate buffer and 3 ml fractions collected. The product \"peak\" fractions 32-34 were collected, diluted 1:1 with propylene glycol and stored below 0° C."}}, "data": [{"smiles": "CN1c2c(O)nc(N)nc2NCC1CNc1ccc(C(=O)N[C@@H](CCC(=O)O)C(=O)O)cc1", "note": "(some centres unmarked) [N^5 -methyl THF, N-5-methyltetrahydrofolic acid]", "values": [{"measurement": "coincidence of dose response curves generated using pteroyltyrosine [125I] as label", "setting": "whole milk folate binder", "value": "more nearly coincident than at lower pH"}]}, {"smiles": "Nc1nc2ncc(CNc3ccc(C(=O)N[C@@H](Cc4ccc(O)cc4)C(=O)O)cc3)nc2c(=O)[nH]1", "note": "[Pteroyltyrosine, Pteroyl-L-Tyrosine]", "values": [{"measurement": "final uv spectrum after treatment with carboxypeptidase A", "setting": "carboxypeptidase A", "value": "very similar to that of pteroic acid"}]}, {"smiles": "Nc1nc2ncc(CNc3ccc(C(=O)N[C@@H](CCC(=O)O)C(=O)O)cc3)nc2c(=O)[nH]1", "note": "[folic acid, pteroylglutamic acid]", "values": [{"measurement": "coincidence of dose response curves generated using pteroyltyrosine [125I] as label", "setting": "whole milk folate binder", "value": "more nearly coincident than at lower pH"}]}, {"smiles": "Nc1nc(O)c2nc(CNc3ccc(C(=O)N[C@@H](Cc4ccc(O)c([125I])c4)C(=O)O)cc3)cnc2n1", "note": "[pteroyltyrosine [^125 I]]", "values": [{"measurement": "deterioration in assay performance on storage", "setting": "[1]", "value": "no deterioration in assay performance over a ten-week period"}, {"measurement": "performance as radiolabel in CPB radioassay for folic acid", "setting": "whole milk folate binder; folic acid concentration range 0-20 ng/ml", "value": "effective radiolabel in a sensitive CPB radioassay for folic acid"}]}]}
